Test results as given in patent US20260166150A1, “CRYSTAL FORM OF NK3R ANTAGONIST, AND PREPARATION METHOD THEREFOR AND USE THEREOF” (CHANGCHUN GENESCIENCE PHARMACEUTICAL CO., LTD., priority 2022, published 2026).

Legend:
human NK-3 receptor = target: T1, human NK-3 receptor (Homo sapiens, UniProt P29371); test: Antagonistic activity on human NK-3 receptor, FLIPR calcium assay in stably transfected human NK-3R/HEK293 cells; type: cell-based
T1 construct: expressed in transfected cells; host or cells: HEK293 (stably transfected human NK-3R/HEK293)
T1 sequence (P29371 1-465): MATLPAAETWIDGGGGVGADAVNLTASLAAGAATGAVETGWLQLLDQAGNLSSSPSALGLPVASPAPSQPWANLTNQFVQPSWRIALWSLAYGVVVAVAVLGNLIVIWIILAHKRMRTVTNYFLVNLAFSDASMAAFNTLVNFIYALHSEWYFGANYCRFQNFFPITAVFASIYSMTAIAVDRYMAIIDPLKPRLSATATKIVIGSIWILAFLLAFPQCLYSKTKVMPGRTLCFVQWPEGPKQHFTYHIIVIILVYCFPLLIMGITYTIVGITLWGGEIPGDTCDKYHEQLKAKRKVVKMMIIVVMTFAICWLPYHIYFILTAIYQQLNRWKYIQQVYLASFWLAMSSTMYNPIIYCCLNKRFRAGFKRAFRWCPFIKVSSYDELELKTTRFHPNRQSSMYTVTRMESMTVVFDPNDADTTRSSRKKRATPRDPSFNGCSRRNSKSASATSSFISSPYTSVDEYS

[1] = DVS hygroscopicity test at 25° C.; type: physicochemical
Method: • DVS curve is collected on DVS Intrinsic of SMS (Surface Measurement Systems) Relative humidity at 25° C. is calibrated based on deliquescent points of LiCl, Mg(NO3)2, and KCl. • Temperature: 25° C.; • Sample amount: 10-20 mg; • Protecting gas and flow rate: N2, 200 mL/min; • dm/dt: 0.002%/min; • Minimum dm/dt equilibration time: 10 min; • Maximum equilibration time: 180 min; • RH range: 0% RH-95% RH-0% RH; • RH gradient: 10% RH (0% RH-90% RH & 90% RH-0% RH); 5% RH (90% RH-95% RH & 95% RH-90% RH)

[2] = Solid-state stability evaluation (open storage, XRPD and HPLC); type: physicochemical
Method: Waters H-Class ultra performance liquid chromatograph is used to collect solubility and purity data of the items.
An appropriate amount of sample was weighed, kept open at 60° C. for 1 day, as well as kept open at 25° C./60% RH and kept open at 40° C./75% RH for 1 week and 4 weeks respectively. Then, the sample was characterized by XRPD and HPLC to detect changes in the crystal form and chemical purity.

| NK-3 receptor antagonism (in words) (human NK-3 receptor; conclusion from IC50 data) | IC50 (human NK-3 receptor; human NK-3R/HEK293 cells, agonist Neurokinin B, FLIPR) [nM] | moisture adsorption ([1]; 25° C./80% RH, DVS) | hygroscopicity (in words) ([1]; DVS, 25° C.) | crystal form before and after DVS testing (XRPD) ([1]; XRPD before and after DVS) | HPLC Relative purity % ([2]; 25° C./60% RH, 1 week, open) [%] | HPLC purity Area % ([2]; 25° C./60% RH, 1 week, open) [%] | HPLC Relative purity % ([2]; 25° C./60% RH, 4 weeks, open) [%] | HPLC purity Area % ([2]; 25° C./60% RH, 4 weeks, open) [%] | HPLC Relative purity % ([2]; 40° C./75% RH, 1 week, open) [%] | HPLC purity Area % ([2]; 40° C./75% RH, 1 week, open) [%] | HPLC Relative purity % ([2]; 40° C./75% RH, 4 weeks, open) [%] | HPLC purity Area % ([2]; 40° C./75% RH, 4 weeks, open) [%] | change of purity after storage ([2]; 60° C. 1 day, 25° C./60% RH and 40° C./75% RH, 1 week and 4 weeks, open) | HPLC Relative purity % ([2]; 60° C., 1 day, open) [%] | HPLC purity Area % ([2]; 60° C., 1 day, open) [%] | physicochemical stability (in words) ([2]; all evaluated storage conditions) | Compound |
| --- | --- | --- | --- | --- | --- | --- | --- | --- | --- | --- | --- | --- | --- | --- | --- | --- | --- |
| potent NK-3 receptor antagonist | 12.1 |  |  |  |  |  |  |  |  |  |  |  |  |  |  |  | Cc1nsc(-c2nc(N3CCCC3=O)c3n2CCN(C(=O)c2ccc(F)cc2)[C@@H]3C)n1 [Compound represented by formula (I), (R)-1-(7-(4-fluorobenzoyl)-8-methyl-3-(3-methyl-1,2,4-thiadiazol-5-yl)-5,6,7,8-tetrahydroimidazo[1,5-a]pyrazin-1-yl)pyrrolidin-2-one] |
|  |  | about 0.15% | almost non-hygroscopic | did not change in the crystal form | 99.9 | 99.48 | 99.9 | 99.45 | 99.9 | 99.49 | 99.9 | 99.49 | < 0.2 %, area % | 99.9 | 99.49 | good physicochemical stability | Cc1nsc(-c2nc(N3CCCC3=O)c3n2CCN(C(=O)c2ccc(F)cc2)[C@@H]3C)n1 [Crystal form A of free base, (R)-1-(7-(4-fluorobenzoyl)-8-methyl-3-(3-methyl-1,2,4-thiadiazol-5-yl)-5,6,7,8-tetrahydroimidazo[1,5-a]pyrazin-1-yl)pyrrolidin-2-one] |
